From PMC8041284, “Tunable Methacrylamides for Covalent Ligand Directed Release Chemistry” (Journal of the American Chemical Society, 2021)
Read-outs that look alike come from different tables or passages of the source. Where a SMILES comes first, the peptide text is derived from it. Bridges are numbered along the chain shown (N, C = ends). [ ]: non-standard residue; d: D form. The star is where a group is joined. Ileψ(thiazoline)Cys = CC[C@H](C)[C@H](N)C1=N[C@H](C(=O)*)CS1; dOrn = NCCC[C@@H](N)C(=O)O

Target: BTK (Homo sapiens, UniProt Q06187)
Sequence (Q06187 402-655 limits assumed): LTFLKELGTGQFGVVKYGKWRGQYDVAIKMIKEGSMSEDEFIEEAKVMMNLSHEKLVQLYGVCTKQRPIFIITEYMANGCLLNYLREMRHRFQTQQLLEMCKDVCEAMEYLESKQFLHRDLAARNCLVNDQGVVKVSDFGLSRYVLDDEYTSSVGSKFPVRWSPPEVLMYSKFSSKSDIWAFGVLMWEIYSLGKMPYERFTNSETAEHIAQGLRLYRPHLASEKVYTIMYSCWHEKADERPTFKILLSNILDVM
Assay: biochemical
[1] = read-out: BTK inhibition (%), 0.75 uM BTK, […] probe 3l, 15 min preincubation

Compound | inhibition at 10 µM [1] [%] | inhibition at 10 µM (read-out: BTK inhibition (%)) [%]
NC(N)=NCCC[C@H](N)C(=O)O [PCM-0215193] | 2.6 | 
CNC(=O)[C@H](Cc1ccccc1)NC(=O)[C@H](CC(C)C)[C@H](CSc1cccs1)C(=O)NO [PCM-0215194] | 11.6 | 
CC(C)N(CCCNC(=O)Nc1ccc(C(C)(C)C)cc1)C[C@H]1O[C@@H](n2ccc3c(N)ncnc32)[C@H](O)[C@@H]1O [PCM-0215195] | -18.5 | 
CC[C@@H](C)Nc1cc(C(=O)NC2C[C@H]3CC[C@@H](C2)N3c2ccc(C(=O)C3CC3)cn2)c(C)cc1C(N)=O (stereo partly drawn) [PCM-0215196] | -0.8 | 
CN1CC[C@@H](c2c(O)cc(O)c3c(=O)cc(-c4ccccc4Cl)oc23)[C@@H]1CO [PCM-0215197] | -5.5 | 
O=C(NC(NC(=S)Nc1ccc(F)c([N+](=O)[O-])c1)C(Cl)(Cl)Cl)C(c1ccccc1)c1ccccc1 (stereo not drawn) [PCM-0215199] | 106 | 
CC[C@H](C)[C@H](N)C1=N[C@H](C(=O)N[C@@H](CC(C)C)C(=O)N[C@H](CCC(=O)O)C(=O)N[C@H](C(=O)N[C@H]2CCCCNC(=O)[C@H](CC(N)=O)NC(=O)[C@@H](CC(=O)O)NC(=O)[C@H](Cc3cnc[nH]3)NC(=O)[C@@H](Cc3ccccc3)NC(=O)[C@H]([C@@H](C)CC)NC(=O)[C@@H](CCCN)NC2=O)[C@@H](C)CC)CS1 [PCM-0215200] ({Ileψ(thiazoline)Cys}-L[dE]IK[dOrn]I[dF]H[dD]N; lactam 4-C) | -27.2 | 
O=C1CC(=O)c2c(Cl)c(Cl)c(Cl)c(Cl)c21 [PCM-0215201] | 79.5 | 
Cc1cc(C(=O)CN2CCCC2)c(C)n1-c1ccc(F)cc1 [PCM-0215202] |  | 5.4
CO/N=C(\C(=O)N[C@@H]1C(=O)N2C(C(=O)O)=C(CSc3nc(=O)c(O)nn3C)CS[C@H]12)c1csc(N)n1 [PCM-0215203] | -16.2 | 
CN(C)[C@@H]1C(=O)C(C(N)=O)=C(O)[C@@]2(O)C(=O)C3=C(O)c4c(O)ccc(Cl)c4[C@@](C)(O)[C@H]3C[C@@H]12 [PCM-0215204] | 10.2 | 
CCOC(CN1CCN(CC(C)C(=O)c2ccccc2)CC1)c1ccccc1 (stereo not drawn) [PCM-0215205] | -6.8 | 
CCOc1ccccc1N=Nc1c(C)[nH]n(-c2nc(-c3ccccc3)cs2)c1=O [PCM-0215207] | -8.5 | 
C=CC(=O)Nc1cccc(Nc2nc(Nc3ccc(NC4CN(CCF)C4)cc3OC)ncc2C(F)(F)F)c1 [PCM-0215208] | 91 | 
Cc1ccc(C(=O)Nc2ccc(CN3CCN(C)CC3)c(C(F)(F)F)c2)cc1C#Cc1cnc2[nH]ncc2c1 [PCM-0215209] | 114 | 
Cc1ccccc1C(C(=O)NC1CCCCC1)N(C(=O)Cn1ccnc1C)c1cccc(F)c1 (stereo not drawn) [PCM-0215210] | -6.9 | 
COc1cc(N2CCC(N)CC2)ccc1Nc1ncc(Cl)c(-c2c[nH]c3ccccc23)n1 [PCM-0215211] | 95.9 | 
CC(=O)c1cc([N+](=O)[O-])c(Sc2ccc(F)cc2F)s1 [PCM-0215212] | 5.4 | 
NC[C@@H]1O[C@H](O[C@H]2[C@@H](O)[C@H](O[C@@H]3[C@@H](O)[C@H](N)C[C@H](N)[C@H]3O[C@H]3O[C@H](CO)[C@@H](O)[C@H](O)[C@H]3N)O[C@@H]2CO)[C@H](N)[C@@H](O)[C@@H]1O [PCM-0215214] | 5.1 | 
c1ccc(CNc2nc(NCc3ccccc3)c3ccccc3n2)cc1 [PCM-0215216] | 10.8 | 
CN[C@@H](C)C(=O)N[C@H](C(=O)N1CCC[C@H]1C(=O)Nc1snnc1-c1ccccc1)C1CCCCC1 [PCM-0215217] | -17 | 

Compound | inhibition at 10 µM [1] [%] | inhibition at 10 µM (read-out: BTK inhibition (%)) [%]
CC(C)C[C@H](NC(=O)[C@H]1O[C@@H]1C(=O)O)C(=O)NCCCCN=C(N)N [PCM-0215218] | 15.4 | 
NC[C@H]1O[C@H](O[C@H]2[C@H](O[C@@H]3O[C@H](CO)[C@@H](O)[C@H]3O)[C@@H](O)[C@H](N)C[C@@H]2N)[C@H](N)[C@@H](O)[C@@H]1O [PCM-0215219] | 25.5 | 
CN[C@@H]1[C@@H](O[C@H]2O[C@H](CO)[C@@H](N)[C@H](O)[C@H]2O)O[C@H]2C[C@@H](N)[C@@H](O[C@H]3[C@H](O)[C@@H](O)[C@H](N)C[C@@H]3N)O[C@@H]2[C@@H]1O [PCM-0215222] | 8.5 | 
Cc1cc(C)c(CNC(=O)c2cc(-c3ccc(CN4CCOCC4)cc3)cc3c2cnn3C2CCCC2)c(=O)[nH]1 [PCM-0215223] | -6.8 | 
CC(=O)N1CCN(CCOc2ccc(C3CCN(C4=Nn5c(nnc5C(F)(F)F)CC4)CC3)cc2)CC1 [PCM-0215224] | -17 | 
Cc1cc(Cn2cnc3c2C[C@@H](C(=O)O)N(C(=O)C(c2ccccc2)c2ccccc2)C3)ccc1N(C)C [PCM-0215225] | 6.2 | 
Cc1cc(SCc2sc(-c3ccc(C(F)(F)F)cc3)nc2C)ccc1OCC(=O)O [PCM-0215226] | 23.9 | 
c1ccc2c(Oc3nc(Nc4ccc(N5CCOCC5)cc4)c4ncn(C5CCCCC5)c4n3)cccc2c1 [PCM-0215227] | 17.9 | 
Cn1cnc2c(F)c(Nc3ccc(Br)cc3F)c(C(=O)NOCCO)cc21 [PCM-0215228] | 22.8 | 
O=C(NNc1nc2cc(F)ccc2n2cccc12)c1cnccn1 [PCM-0215229] | 30.1 | 
CCNC(=O)C[C@@H]1N=C(c2ccc(Cl)cc2)c2cc(OC)ccc2-n2c(C)nnc21 [PCM-0215230] | -20.8 | 
COc1ccc(/C=C\c2cc(OC)c(OC)c(OC)c2)cc1OP(=O)(O)O [PCM-0215231] | -27.2 | 
CCN=C1N[C@@H]2[C@@H](O)[C@H](O)[C@@H](CO)O[C@@H]2S1 [PCM-0215232] | 3.1 | 
O=C(Nc1cc2cc[nH]c2cn1)c1ccccc1 [PCM-0215233] | 0.8 | 
O=C(NN=Cc1ccc(O)c(O)c1)c1cc2ccccc2cc1O [PCM-0215235] | 32.4 | 
O=C1C(Cl)=C(N2CCOCC2)C(=O)N1c1ccc(Cl)c(Cl)c1 [PCM-0215236] | -0.8 | 
Cn1cc(C2=C(c3cn(CCCSC(=N)N)c4ccccc34)C(=O)NC2=O)c2ccccc21 [PCM-0215237] | 117 | 
CC(=O)Nc1cccc2c1c(Sc1ccc(Cl)cc1)c(C)n2CC(=O)O [PCM-0215238] | -9.3 | 
COC(=O)[C@]12CCC(C)(C)C[C@H]1[C@H]1C(=O)C=C3[C@@]4(C)C=C(C#N)C(=O)C(C)(C)[C@@H]4CC[C@@]3(C)[C@]1(C)CC2 [PCM-0215239] | 16.6 | 
CC(C)(C)NS(=O)(=O)c1cncc(-c2cc(F)c3nc(N)nn3c2)c1 [PCM-0215240] | -4.8 | 
Cc1cc(Nc2ccc(NC(=O)c3ccc(Nc4ccnc5ccccc45)cc3)cc2)nc(N)n1 [PCM-0215241] | 17 | 

Compound | inhibition at 10 µM [1] [%] | inhibition at 10 µM (read-out: BTK inhibition (%)) [%]
CC(C)(C#N)c1ccc(N2C(=O)OCc3cnc4ccc(-c5cnc6ccccc6c5)cc4c32)cc1 [PCM-0215242] | -4.8 | 
Fc1cc(F)c2c(c1)[C@H]1C=CC[C@H]1C(c1cccnc1)N2 (stereo partly drawn) [PCM-0215243] | -18.5 | 
Cc1c(C(=O)N2CCOc3ccc(-c4ccc(N)nc4)cc3C2)ccc(S(C)(=O)=O)c1F [PCM-0215244] | 1.4 | 
C=CC(=O)Nc1cccc(Nc2nc(Nc3ccc(N4CCN(C(C)=O)CC4)cc3OC)ncc2C(F)(F)F)c1 [PCM-0215245] | 95.9 | 
CCn1c2ccccc2c2cc(Nc3ccnc(NCCCN4CCOCC4)n3)ccc21 [PCM-0215246] | -6.9 | 
COc1cc(-c2ncn(/C=C\C(=O)OC(C)C)n2)cc(C(F)(F)F)c1 [PCM-0215247] | -11.6 | 
O=C1c2ccc(Nc3ccc(F)cc3F)cc2CCc2ccc(OC[C@H](O)CO)cc21 [PCM-0215248] | 13.1 | 
CCCC(CCC)C(=O)OC1C[C@H]2CC[C@@H](C1)[N+]2(C)C (stereo partly drawn) [PCM-0215249] | -37.4 | 
O=C(O)c1ccc(NC(=O)[C@H](Cc2ccc(O)cc2)NC(=O)c2ccccc2)cc1 [PCM-0215250] | -10.1 | 
O=C(O)[C@H](O)[C@H](O)[C@@H](O)[C@H](O)[C@H](O)CO [PCM-0215251] | -28.9 | 
CC1(C)[C@@H](OC(=O)CCC(=O)O)CC[C@]2(C)[C@H]3C(=O)C=C4[C@@H]5C[C@@](C)(C(=O)O)CC[C@]5(C)CC[C@@]4(C)[C@]3(C)CC[C@@H]12 [PCM-0215252] | 26.5 | 
CC(C)(O/N=C(\C(=O)N[C@@H]1C(=O)N2C(C(=O)[O-])=C(C[n+]3ccccc3)CS[C@H]12)c1csc(N)n1)C(=O)O [PCM-0215253] | 6.8 | 
CC(=O)OCC1=C(C(=O)O)N2C(=O)[C@@H](NC(=O)CSc3ccncc3)[C@H]2SC1 [PCM-0215254] | 3.1 | 
C[N+]1(C)CCCC(OC(=O)C(O)(c2ccccc2)c2ccccc2)C1 (stereo not drawn) [PCM-0215256] | -7.8 | 
CCCCC(C)(O)C/C=C/[C@H]1[C@H](O)CC(=O)[C@@H]1CCCCCCC(=O)OC (stereo partly drawn) [PCM-0215257] | -7.8 | 
CN1CCC[C@H]1c1cccnc1 [PCM-0215258] | -1.6 | 
Cc1ccc(C(=O)c2ccc(CC(=O)O)n2C)cc1 [PCM-0215259] | 9.4 | 
Cc1ccc2nc(NCCN)c3ncc(C)n3c2c1 [PCM-0215260] | -16.6 | 
O=C(NCc1ccc(Oc2ccccc2)cc1)c1nc(-c2cc(Br)c(O)c(Br)c2)no1 [PCM-0215261] | 94.2 | 
O=C(Nc1ccc(-c2ccnc(Nc3ccc(N4CCOCC4)cc3)n2)cc1)[C@@H]1CCCN1 [PCM-0215262] | 4.8 | 
COc1c(C)c(C(=O)c2ccc(N)c(C(=O)O)c2)n2ccccc12 [PCM-0215263] | 17.2 | 
